Experimental data from PubChem BioAssay (NCI).
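Interpolation was linear, between the two tested concentrations surrounding the appropriate level; five concentrations were tested over 48 hours in 96-well plates. TGI: total growth inhibition.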

How the values were obtained:
Test in all cases: growth of human tumour cells (NCI), 48 h
[1] = tested on: 786-0 renal
[2] = tested on: A498 renal
[3] = tested on: A549 NSCLC
[4] = tested on: ACHN renal
[5] = tested on: CAKI-1 renal
[6] = tested on: CCRF-CEM leukemia
[7] = tested on: COLO 205 colon
[8] = tested on: DU-145 prostate
[9] = tested on: EKVX NSCLC
[10] = tested on: HCC-2998 colon
[11] = tested on: HCT-116 colon
[12] = tested on: HCT-15 colon
[13] = tested on: HL-60(TB) leukemia
[14] = tested on: HOP-62 NSCLC
[15] = tested on: HOP-92 NSCLC
[16] = tested on: HS 578T breast
[17] = tested on: HT29 colon
[18] = tested on: IGROV1 ovarian
[19] = tested on: K-562 leukemia
[20] = tested on: KM12 colon
[21] = tested on: LOX IMVI melanoma
[22] = tested on: M14 melanoma
[23] = tested on: MALME-3M melanoma
[24] = tested on: MCF7 breast
[25] = tested on: MDA-MB-231 breast
[26] = tested on: MDA-MB-435
[27] = tested on: MDA-N
[28] = tested on: MOLT-4 leukemia
[29] = tested on: NCI-H226 lung
[30] = tested on: NCI-H23 lung
[31] = tested on: NCI-H460 lung
[32] = tested on: NCI-H522 lung
[33] = tested on: NCI/ADR-RES ovarian
[34] = tested on: OVCAR-3 ovarian
[35] = tested on: OVCAR-4 ovarian
[36] = tested on: OVCAR-5 ovarian
[37] = tested on: OVCAR-8 ovarian
[38] = tested on: PC-3 prostate
[39] = tested on: RPMI-8226 leukemia
[40] = tested on: RXF 393 renal
[41] = tested on: SF-268 CNS
[42] = tested on: SF-295 CNS
[43] = tested on: SF-539 CNS
[44] = tested on: SK-MEL-2 melanoma
[45] = tested on: SK-MEL-28 melanoma
[46] = tested on: SK-MEL-5 melanoma
[47] = tested on: SK-OV-3 ovarian
[48] = tested on: SN12C renal
[49] = tested on: SNB-19 CNS
[50] = tested on: SNB-75 CNS
[51] = tested on: SR leukemia
[52] = tested on: SW-620 colon
[53] = tested on: T-47D breast
[54] = tested on: TK-10 renal
[55] = tested on: U251 CNS
[56] = tested on: UACC-257 melanoma
[57] = tested on: UACC-62 melanoma
[58] = tested on: UO-31 renal
[59] = tested on: BT-549 breast

## C/C(O)=C(/C=N/C(=S)Nc1ccccc1)C(=O)Nc1ccccc1C
[1]
  TGI: > 100 µM
[2]
  TGI: > 100 µM
[3]
  TGI: > 100 µM
[4]
  TGI: > 100 µM
[5]
  TGI: > 100 µM
[6]
  TGI: > 100 µM
[7]
  TGI: > 100 µM
[8]
  TGI: > 100 µM
[9]
  TGI: > 100 µM
[10]
  TGI: > 100 µM
[11]
  TGI: > 100 µM
[12]
  TGI: > 100 µM
[13]
  TGI: > 100 µM
[14]
  TGI: > 100 µM
[15]
  TGI: > 100 µM
[16]
  TGI: > 100 µM
[17]
  TGI: > 100 µM
[18]
  TGI: > 100 µM
[19]
  TGI: > 100 µM
[20]
  TGI: > 100 µM
[21]
  TGI: > 100 µM
[22]
  TGI: > 100 µM
[23]
  TGI: > 100 µM
[24]
  TGI: > 100 µM
[25]
  TGI: > 100 µM
[26]
  TGI: > 100 µM
[27]
  TGI: > 100 µM
[28]
  TGI: > 100 µM
[29]
  TGI: > 100 µM
[30]
  TGI: > 100 µM
[31]
  TGI: > 100 µM
[32]
  TGI: > 100 µM
[33]
  TGI: > 100 µM
[34]
  TGI: > 100 µM
[35]
  TGI: > 100 µM
[36]
  TGI: > 100 µM
[37]
  TGI: > 100 µM
[38]
  TGI: > 100 µM
[39]
  TGI: > 100 µM
[40]
  TGI: > 100 µM
[41]
  TGI: > 100 µM
[42]
  TGI: > 100 µM
[43]
  TGI: > 100 µM
[44]
  TGI: > 100 µM
[45]
  TGI: > 100 µM
[46]
  TGI: > 100 µM
[47]
  TGI: > 100 µM
[48]
  TGI: > 100 µM
[49]
  TGI: > 100 µM
[50]
  TGI: > 100 µM
[51]
  TGI: > 100 µM
[52]
  TGI: > 100 µM
[53]
  TGI: > 100 µM
[54]
  TGI: > 100 µM
[55]
  TGI: > 100 µM
[56]
  TGI: > 100 µM
[57]
  TGI: > 100 µM
[58]
  TGI: > 100 µM

## CC1(C)/C(=N\O)C2(OS(=O)(=O)C(F)(F)F)CCC1C2 (stereo unspecified)
[2]
  TGI: > 100 µM
[4]
  TGI: > 100 µM
[59]
  TGI: > 100 µM
[5]
  TGI: > 100 µM
[6]
  TGI: > 100 µM
[9]
  TGI: > 100 µM
[10]
  TGI: > 100 µM
[12]
  TGI: > 100 µM
[13]
  TGI: > 100 µM
[15]
  TGI: > 100 µM
[20]
  TGI: > 100 µM
[25]
  TGI: > 100 µM
[26]
  TGI: > 100 µM
[27]
  TGI: > 100 µM
[28]
  TGI: > 100 µM
[29]
  TGI: > 100 µM
[30]
  TGI: > 100 µM
[31]
  TGI: > 100 µM
[33]
  TGI: > 100 µM
[35]
  TGI: > 100 µM
[37]
  TGI: > 100 µM
[39]
  TGI: > 100 µM
[41]
  TGI: > 100 µM
[45]
  TGI: > 100 µM
[48]
  TGI: > 100 µM
[49]
  TGI: > 100 µM
[50]
  TGI: > 100 µM
[51]
  TGI: > 100 µM
[54]
  TGI: > 100 µM
[55]
  TGI: > 100 µM
[56]
  TGI: > 100 µM
[57]
  TGI: > 100 µM
[58]
  TGI: > 100 µM

## O=C1c2cc3c(cc2CC12Cc1ccccc1C2)CCC3
[1]
  TGI: 64.8 µM
[2]
  TGI: > 100 µM
[3]
  TGI: > 100 µM
[4]
  TGI: 97.7 µM
[5]
  TGI: 75.1 µM
[6]
  TGI: 98.3 µM
[7]
  TGI: 48.5 µM
[8]
  TGI: > 100 µM
[9]
  TGI: > 100 µM
[10]
  TGI: > 100 µM
[11]
  TGI: 47.5 µM
[12]
  TGI: > 100 µM
[13]
  TGI: 81.6 µM
[14]
  TGI: 92 µM
[15]
  TGI: 64.3 µM
[16]
  TGI: > 100 µM
[17]
  TGI: 50.5 µM
[18]
  TGI: > 100 µM
[19]
  TGI: > 100 µM
[20]
  TGI: 56.9 µM
[21]
  TGI: 36 µM
[22]
  TGI: 70.6 µM
[23]
  TGI: 71.5 µM
[24]
  TGI: 54.6 µM
[25]
  TGI: 66.7 µM
[26]
  TGI: 73.1 µM
[27]
  TGI: 86.8 µM
[28]
  TGI: 54.5 µM
[29]
  TGI: 73.8 µM
[30]
  TGI: > 100 µM
[31]
  TGI: > 100 µM
[32]
  TGI: 93.3 µM
[33]
  TGI: 76.8 µM
[34]
  TGI: > 100 µM
[35]
  TGI: > 100 µM
[36]
  TGI: > 100 µM
[37]
  TGI: 76.7 µM
[38]
  TGI: > 100 µM
[39]
  TGI: 68.2 µM
[40]
  TGI: 67.2 µM
[41]
  TGI: 93.7 µM
[42]
  TGI: > 100 µM
[43]
  TGI: 93.2 µM
[44]
  TGI: 51.8 µM
[45]
  TGI: > 100 µM
[46]
  TGI: 32.2 µM
[47]
  TGI: > 100 µM
[48]
  TGI: > 100 µM
[49]
  TGI: > 100 µM
[50]
  TGI: 93.8 µM
[51]
  TGI: 74.7 µM
[52]
  TGI: > 100 µM
[53]
  TGI: > 100 µM
[54]
  TGI: > 100 µM
[55]
  TGI: > 100 µM
[56]
  TGI: 54.4 µM
[58]
  TGI: > 100 µM

## c1ccc(CSC(SCc2ccccc2)c2cccc3ccccc23)cc1
[2]
  TGI: > 10 µM
[3]
  TGI: > 10 µM
[4]
  TGI: > 10 µM
[5]
  TGI: > 10 µM
[6]
  TGI: > 10 µM
[7]
  TGI: > 10 µM
[8]
  TGI: > 10 µM
[9]
  TGI: > 10 µM
[10]
  TGI: > 10 µM
[11]
  TGI: > 10 µM
[12]
  TGI: > 10 µM
[13]
  TGI: > 10 µM
[14]
  TGI: > 10 µM
[16]
  TGI: > 10 µM
[17]
  TGI: > 10 µM
[18]
  TGI: > 10 µM
[19]
  TGI: > 10 µM
[20]
  TGI: > 10 µM
[22]
  TGI: > 10 µM
[23]
  TGI: > 10 µM
[24]
  TGI: > 10 µM
[25]
  TGI: > 10 µM
[26]
  TGI: > 10 µM
[27]
  TGI: > 10 µM
[28]
  TGI: > 10 µM
[29]
  TGI: > 10 µM
[30]
  TGI: > 10 µM
[31]
  TGI: > 10 µM
[32]
  TGI: > 10 µM
[33]
  TGI: > 10 µM
[35]
  TGI: > 10 µM
[36]
  TGI: > 10 µM
[37]
  TGI: > 10 µM
[38]
  TGI: > 10 µM
[39]
  TGI: > 10 µM
[40]
  TGI: > 10 µM
[41]
  TGI: > 10 µM
[42]
  TGI: > 10 µM
[43]
  TGI: > 10 µM
[44]
  TGI: > 10 µM
[45]
  TGI: > 10 µM
[46]
  TGI: > 10 µM
[47]
  TGI: > 10 µM
[48]
  TGI: > 10 µM
[49]
  TGI: > 10 µM
[50]
  TGI: > 10 µM
[51]
  TGI: > 10 µM
[52]
  TGI: > 10 µM
[53]
  TGI: > 10 µM
[54]
  TGI: > 10 µM
[55]
  TGI: > 10 µM
[57]
  TGI: > 10 µM
[58]
  TGI: > 10 µM
